For test [1] the following is noted: pre-dose human blood plasma incubated ex vivo with the cyclodextrin; FIG. 1B. The method, then: For each dose, whole blood was collected pre-dose, post-dose (line flush), 1 hour post-dose, and 24 hours post-dose. Plasma was separated from the whole blood and subjected to a cholesterol crystal dissolution capacity (CCDC) assay using techniques similar to those described in the literature. The CCDC assay measures the ability of a sample to dissolve cholesterol crystals.
Blood plasma pre-dose was also incubated ex vivo with 2-hydroxypropyl-beta-cyclodextrin and the ability of the plasma to dissolve cholesterol crystals was measured.

The conditions of test [2]: human subject; single-ascending intravenous doses 500, 750, 1,000, 1,000 mg/kg every 4 weeks; plasma pre-dose, post-dose, 1 hour and 24 hours post-dose; FIG. 1A. The procedure:
A human subject was treated with 2-hydroxypropyl-beta-cyclodextrin with single-ascending doses administered intravenously every 4 weeks according to Table 1 below. […] For each dose, whole blood was collected pre-dose, post-dose (line flush), 1 hour post-dose, and 24 hours post-dose. Plasma was separated from the whole blood and subjected to a cholesterol crystal dissolution capacity (CCDC) assay using techniques similar to those described in the literature. The CCDC assay measures the ability of a sample to dissolve cholesterol crystals.

In another test the test system is 27-hydroxycholesterol. The settings on record: human subject; intravenous doses 500-1,000 mg/kg every 4 weeks; FIGS. 2A-2C. The procedure:
(§1) A human subject was treated with 2-hydroxypropyl-beta-cyclodextrin with single-ascending doses administered intravenously every 4 weeks according to Table 1 below.
(§2) In this Example, a human subject was treated with 2-hydroxypropyl-beta-cyclodextrin according to Example 1, and plasma levels of 24S-hydroxycholesterol and 27-hydroxycholesterol were measured. […] 27-hydroxycholesterol is an endogenous LXR ligand leading to a downstream anti-inflammatory gene signature which may, in some embodiments, address the detrimental inflammatory response via NLRP3 inflammasome effects of cholesterol crystal embolization. The elevated 27-hydroxycholesterol is also a cellular marker of macrophage activation and increased activity for cholesterol crystal phagocytosis and clearance.

For a further test, the system named is 24S-hydroxycholesterol. The settings on record: human subject; intravenous doses 500-1,000 mg/kg every 4 weeks; FIGS. 2A-2C. The method, then: as §1, §2
For test [3] the following is noted: human subject; intravenous doses 500-1,000 mg/kg every 4 weeks; FIGS. 2A-2C. The procedure: as §1, §2
A further test deals with ABCG1. To be noted: human subject; intravenous doses 500-1,000 mg/kg every 4 weeks; peripheral blood; FIGS. 3A-3D. The procedure:
as §1
(§3) In this Example, a human subject was treated with 2-hydroxypropyl-beta-cyclodextrin according to Example 1, and mRNA levels of the LXR transcription factor-regulated genes, ABCA1 and ABCG1, were measured. […] ABCA1 and ABCG1 are important cholesterol transporters and are responsible for cholesterol efflux from cells, loading of HDL particles for reverse cholesterol transport (RCT), and excretion via the hepatic pathway, to potentially reduce the cholesterol and cholesterol crystal emboli released into the vasculature and stabilize ruptured atherosclerotic plaque.

The test system of the next test is ABCA1. The settings on record: human subject; intravenous doses 500-1,000 mg/kg every 4 weeks; peripheral blood; FIGS. 3A-3D. The procedure:
as §1, §3

For the substance 2-hydroxypropyl-beta-cyclodextrin, the “capacity of plasma to dissolve cholesterol crystals after ex vivo incubation” value in test [1] is “increased capacity”. Also, the “capability of blood plasma to dissolve cholesterol crystals (CCDC) after treatment” value in test [2] is reported as “increased capability”. In addition, the “plasma level of 27-hydroxycholesterol” value in the test with 27-hydroxycholesterol is given as “increased plasma levels”. Moreover, the “plasma level of 24S-hydroxycholesterol” value in the test with 24S-hydroxycholesterol was “increased plasma levels”. Besides, in test [3], the “total cholesterol levels in plasma” value is “remained stable”. Also, the “mRNA level of ABCG1” value in the test on ABCG1 was “increased mRNA levels”. Besides, the “mRNA level of ABCA1” value in the test with ABCA1 is on record as “increased mRNA levels”.

Values taken from patent US20230302042A1, “METHODS FOR THE PREVENTION OF CHOLESTEROL CRYSTAL EMBOLIZATION WITH CYCLODEXTRINS” (Beren Therapeutics P.B.C., priority 2020, published 2023).
